Assay results as given in patent US10952436B2, “Microbiocidal quinoline (thio)carboxamide derivatives” (SYNGENTA PARTICIPATIONS AG, priority 2017, dated 2021).

What was measured:
Fusarium culmorum [1] = assay: whole plant or invertebrate; assay type: in vivo; conditions: in Triticum aestivum, read-out: control of Fusarium culmorum
[2] = test system: Glomerella lagenarium (Colletotrichum lagenarium); assay: Glomerella lagenarium (Colletotrichum lagenarium)/Liquid Culture (Anthracnose); assay type: cell-based; conditions: Colletotrichum orbiculare; 200 ppm; liquid culture, compared to untreated control, 3-4 days after application; read-out: control of Glomerella lagenarium
Sclerotinia sclerotiorum = assay: Sclerotinia sclerotiorum/Liquid Culture (Cottony Rot); conditions: read-out: control of Sclerotinia sclerotiorum
Procedure: Mycelia fragments of a newly grown liquid culture of the fungus are directly mixed into nutrient broth (Vogels broth). After placing a (DMSO) solution of test compound into a microtiter plate (96-well format) the nutrient broth containing the fungal material is added. The test plates are incubated at 24° C. and the inhibition of growth is determined photometrically 3-4 days after application.

[3] = test system: Magnaporthe grisea (Pyricularia oryzae); assay: whole plant or invertebrate; assay type: in vivo; conditions: foliar, read-out: control of Magnaporthe grisea
[4] = test system: Botryotinia fuckeliana (Botrytis cinerea); assay: Botryotinia fuckeliana (Botrytis cinerea)/Liquid Culture (Gray Mould); assay type: cell-based; conditions: 200 ppm, liquid culture, compared to untreated control, 3-4 days after application, read-out: control of Botryotinia fuckeliana
Fusarium culmorum [5] = assay: microbe, parasite or virus in culture; assay type: cell-based; conditions: read-out: control of Fusarium culmorum
[6] = test system: Magnaporthe grisea (Pyricularia oryzae); assay: microbe, parasite or virus in culture; assay type: cell-based; conditions: read-out: control of Magnaporthe grisea
[7] = test system: Monographella nivalis (Microdochium nivale); assay: Monographella nivalis (Microdochium nivale)/Liquid Culture (Foot Rot Cereals); assay type: cell-based; conditions: 200 ppm, liquid culture, compared to untreated control, 4-5 days after application, read-out: control of Monographella nivalis

Cc1c(NC(=O)C(Cc2ccccc2)CC(C)C)cnc2c(F)cccc12 (stereo not drawn) [Compound E-19, 2-benzyl-N-(8-fluoro-4-methyl-3-quinolyl)-4-methyl-pentanamide]
≥ 80%: pest or weed control at 200 ppm (Fusarium culmorum [1]) | inhibition of growth at 200 ppm [2] | inhibition of growth at 20 ppm (Sclerotinia sclerotiorum) | pest or weed control at 200 ppm [3] | inhibition of growth at 200 ppm [4] | inhibition of growth at 200 ppm (Fusarium culmorum [5]) | inhibition of growth at 200 ppm [6]

Cc1c(NC(=O)C(Cc2ccccc2)CC(F)(F)F)cnc2c(F)cccc12 (stereo not drawn) [Compound E-45, 2-benzyl-4,4,4-trifluoro-N-(8-fluoro-4-methyl-3-quinolyl)butanamide]
≥ 80%: pest or weed control at 200 ppm (Fusarium culmorum [1]) | inhibition of growth at 200 ppm [2] | inhibition of growth at 20 ppm (Sclerotinia sclerotiorum) | pest or weed control at 200 ppm [3] | inhibition of growth at 200 ppm [4] | inhibition of growth at 200 ppm (Fusarium culmorum [5]) | inhibition of growth at 200 ppm [6]
165 to 167 °C: melting point

CC1(C[C@](C)(Cc2ccccc2)C(=O)Nc2cnc3c(F)cccc3c2)CC1 [Compound F-9, (2R)-2-benzyl-N-(8-fluoro-3-quinolyl)-2-methyl-3-(1-methylcyclopropyl) propanamide]
62 to 64 °C: melting point
≥ 80%: pest or weed control at 200 ppm (Fusarium culmorum [1]) | inhibition of growth at 200 ppm [2] | inhibition of growth at 200 ppm [7] | inhibition of growth at 20 ppm (Sclerotinia sclerotiorum) | pest or weed control at 200 ppm [3] | inhibition of growth at 200 ppm [4] | inhibition of growth at 200 ppm (Fusarium culmorum [5]) | inhibition of growth at 200 ppm [6]

Cc1nc2c(F)cccc2cc1NC(=O)[C@](C)(Cc1ccccc1)CC(F)(F)F [Compound F-11, (2R)-2-benzyl-4,4,4-trifluoro-N-(8-fluoro-2-methyl-3-quinolyl)-2-methyl-butanamide]
137 to 139 °C: melting point
≥ 80%: pest or weed control at 200 ppm (Fusarium culmorum [1]) | inhibition of growth at 200 ppm [2] | inhibition of growth at 20 ppm (Sclerotinia sclerotiorum) | pest or weed control at 200 ppm [3] | inhibition of growth at 200 ppm [4] | inhibition of growth at 200 ppm (Fusarium culmorum [5]) | inhibition of growth at 200 ppm [6]

Cc1nc2c(F)cccc2cc1NC(=O)C(C)(Cc1cccc(F)c1)CC(F)(F)F (stereo not drawn) [Compound E-8, 4,4,4-trifluoro-N-(8-fluoro-2-methyl-3-quinolyl)-2-[(3-fluorophenyl)methyl]-2-methyl-butanamide]
≥ 80%: pest or weed control at 200 ppm (Fusarium culmorum [1]) | inhibition of growth at 200 ppm [2] | inhibition of growth at 20 ppm (Sclerotinia sclerotiorum) | pest or weed control at 200 ppm [3] | inhibition of growth at 200 ppm [4] | inhibition of growth at 200 ppm (Fusarium culmorum [5]) | inhibition of growth at 200 ppm [6]

Cc1c(NC(=O)C(C)(Cc2ccccc2)CC(F)(F)F)cnc2c(F)cccc12 (stereo not drawn) [Compound E-50, 2-benzyl-4,4,4-trifluoro-N-(8-fluoro-4-methyl-3-quinolyl)-2-methyl-butanamide]
≥ 80%: pest or weed control at 200 ppm (Fusarium culmorum [1]) | inhibition of growth at 200 ppm [2] | inhibition of growth at 200 ppm [7] | inhibition of growth at 20 ppm (Sclerotinia sclerotiorum) | pest or weed control at 200 ppm [3] | inhibition of growth at 200 ppm [4] | inhibition of growth at 200 ppm (Fusarium culmorum [5]) | inhibition of growth at 200 ppm [6]
106 to 109 °C: melting point

Cc1nc2c(F)cccc2cc1NC(=O)[C@@](C)(Cc1ccccc1)CC(F)(F)F [Compound F-12, (2S)-2-benzyl-4,4,4-trifluoro-N-(8-fluoro-2-methyl-3-quinolyl)-2-methyl-butanamide]
≥ 80%: pest or weed control at 200 ppm (Fusarium culmorum [1]) | inhibition of growth at 200 ppm [2] | inhibition of growth at 200 ppm [7] | inhibition of growth at 20 ppm (Sclerotinia sclerotiorum) | pest or weed control at 200 ppm [3] | inhibition of growth at 200 ppm [4] | inhibition of growth at 200 ppm (Fusarium culmorum [5]) | inhibition of growth at 200 ppm [6]
135 to 136 °C: melting point

Cc1nc2c(Cl)cccc2cc1NC(=O)C(C)(Cc1ccccc1)CC(F)(F)F (stereo not drawn) [Compound E-17, 2-benzyl-N-(8-chloro-2-methyl-3-quinolyl)-4,4,4-trifluoro-2-methyl-butanamide]
47 to 50 °C: melting point
≥ 80%: inhibition of growth at 200 ppm [2] | inhibition of growth at 200 ppm [7] | inhibition of growth at 20 ppm (Sclerotinia sclerotiorum) | pest or weed control at 200 ppm [3] | inhibition of growth at 200 ppm [4] | inhibition of growth at 200 ppm (Fusarium culmorum [5]) | inhibition of growth at 200 ppm [6]

CC#CCC(C)(Cc1ccccc1)C(=O)Nc1cnc2c(F)cccc2c1 (stereo not drawn) [Compound E-30, 2-benzyl-N-(8-fluoro-3-quinolyl)-2-methyl-hex-4-ynamide]
≥ 80%: inhibition of growth at 200 ppm [7] | pest or weed control at 200 ppm [3] | inhibition of growth at 200 ppm [4] | inhibition of growth at 200 ppm (Fusarium culmorum [5]) | inhibition of growth at 200 ppm [6]
136 to 138 °C: melting point

CC(Cc1ccc(F)cc1)(CC(F)(F)F)C(=O)Nc1cnc2c(F)cccc2c1 (stereo not drawn) [Compound E-18, 4,4,4-trifluoro-2-[(4-fluorophenyl)methyl]-N-(8-fluoro-3-quinolyl)-2-methyl-butanamide]
≥ 80%: inhibition of growth at 200 ppm [2] | inhibition of growth at 200 ppm [7] | inhibition of growth at 20 ppm (Sclerotinia sclerotiorum) | pest or weed control at 200 ppm [3] | inhibition of growth at 200 ppm [4] | inhibition of growth at 200 ppm (Fusarium culmorum [5]) | inhibition of growth at 200 ppm [6]

CC(Cc1ccccc1)(CC(F)(F)F)C(=O)Nc1cnc2c(F)cccc2c1 (stereo not drawn) [Compound E-80, 2-benzyl-4,4,4-trifluoro-N-(8-fluoro-3-quinolyl)-2-methyl-butanamide]
≥ 80%: pest or weed control at 200 ppm (Fusarium culmorum [1]) | inhibition of growth at 200 ppm [2] | inhibition of growth at 200 ppm [7] | inhibition of growth at 20 ppm (Sclerotinia sclerotiorum) | pest or weed control at 200 ppm [3] | inhibition of growth at 200 ppm [4] | inhibition of growth at 200 ppm (Fusarium culmorum [5]) | inhibition of growth at 200 ppm [6]

C=C(C)C[C@](C)(Cc1ccccc1)C(=O)Nc1cnc2c(F)cccc2c1C [Compound F-6, (2R)-2-benzyl-N-(8-fluoro-4-methyl-3-quinolyl)-2,4-dimethyl-pent-4-enamide]
≥ 80%: pest or weed control at 200 ppm (Fusarium culmorum [1]) | inhibition of growth at 200 ppm [2] | inhibition of growth at 200 ppm [7] | inhibition of growth at 20 ppm (Sclerotinia sclerotiorum) | pest or weed control at 200 ppm [3] | inhibition of growth at 200 ppm [4] | inhibition of growth at 200 ppm (Fusarium culmorum [5]) | inhibition of growth at 200 ppm [6]

C=C(C)C[C@@](C)(Cc1ccccc1)C(=O)Nc1cnc2c(F)cccc2c1 [Compound F-21, (2S)-2-benzyl-N-(8-fluoro-3-quinolyl)-2,4-dimethyl-pent-4-enamide]
132 to 135 °C: melting point
≥ 80%: pest or weed control at 200 ppm (Fusarium culmorum [1]) | inhibition of growth at 200 ppm [2] | inhibition of growth at 200 ppm [7] | pest or weed control at 200 ppm [3] | inhibition of growth at 200 ppm [4] | inhibition of growth at 200 ppm (Fusarium culmorum [5])

C#CCC(C)(Cc1ccccc1)C(=O)Nc1cnc2c(F)cccc2c1 (stereo not drawn) [Compound E-26, 2-benzyl-N-(8-fluoro-3-quinolyl)-2-methyl-pent-4-ynamide]
189 to 191 °C: melting point
≥ 80%: inhibition of growth at 200 ppm [2] | inhibition of growth at 200 ppm [7] | pest or weed control at 200 ppm [3] | inhibition of growth at 200 ppm [4] | inhibition of growth at 200 ppm (Fusarium culmorum [5]) | inhibition of growth at 200 ppm [6]

C=C(C)C[C@](C)(Cc1ccccc1)C(=O)Nc1cc2cccc(F)c2nc1C [Compound F-2, (2R)-2-benzyl-N-(8-fluoro-2-methyl-3-quinolyl)-2,4-dimethyl-pent-4-enamide]
≥ 80%: pest or weed control at 200 ppm (Fusarium culmorum [1]) | inhibition of growth at 200 ppm [2] | inhibition of growth at 20 ppm (Sclerotinia sclerotiorum) | pest or weed control at 200 ppm [3] | inhibition of growth at 200 ppm [4] | inhibition of growth at 200 ppm (Fusarium culmorum [5]) | inhibition of growth at 200 ppm [6]

Cc1nc2c(Cl)cccc2cc1NC(=O)C(C)(Cc1ccccc1)CC(C)C (stereo not drawn) [Compound E-13, 2-benzyl-N-(8-chloro-2-methyl-3-quinolyl)-2,4-dimethyl-pentanamide]
99 to 100 °C: melting point
≥ 80%: inhibition of growth at 200 ppm [2] | inhibition of growth at 200 ppm [7] | inhibition of growth at 20 ppm (Sclerotinia sclerotiorum) | pest or weed control at 200 ppm [3] | inhibition of growth at 200 ppm [4] | inhibition of growth at 200 ppm (Fusarium culmorum [5]) | inhibition of growth at 200 ppm [6]

C=C(C)C[C@@](C)(Cc1ccccc1)C(=O)Nc1cc2cccc(F)c2nc1C [Compound F-1, (2S)-2-benzyl-N-(8-fluoro-2-methyl-3-quinolyl)-2,4-dimethyl-pent-4-enamide]
≥ 80%: pest or weed control at 200 ppm (Fusarium culmorum [1]) | inhibition of growth at 200 ppm [2] | inhibition of growth at 20 ppm (Sclerotinia sclerotiorum) | pest or weed control at 200 ppm [3] | inhibition of growth at 200 ppm [4] | inhibition of growth at 200 ppm (Fusarium culmorum [5]) | inhibition of growth at 200 ppm [6]

CCCCC(C)(Cc1ccccc1)C(=O)Nc1cnc2c(F)cccc2c1 (stereo not drawn) [Compound E-27, 2-benzyl-N-(8-fluoro-3-quinolyl)-2-methyl-hexanamide]
≥ 80%: inhibition of growth at 200 ppm [7] | pest or weed control at 200 ppm [3] | inhibition of growth at 200 ppm [4] | inhibition of growth at 200 ppm (Fusarium culmorum [5]) | inhibition of growth at 200 ppm [6]
135 to 137 °C: melting point

C=C(Cl)CC(C)(Cc1ccccc1)C(=O)Nc1cc2cccc(F)c2nc1C (stereo not drawn) [Compound E-21, 2-benzyl-4-chloro-N-(8-fluoro-2-methyl-3-quinolyl)-2-methyl-pent-4-enamide]
121 to 123 °C: melting point
≥ 80%: pest or weed control at 200 ppm (Fusarium culmorum [1]) | inhibition of growth at 200 ppm [2] | inhibition of growth at 20 ppm (Sclerotinia sclerotiorum) | pest or weed control at 200 ppm [3] | inhibition of growth at 200 ppm [4] | inhibition of growth at 200 ppm (Fusarium culmorum [5]) | inhibition of growth at 200 ppm [6]
